Like-named read-outs stand apart in the source and are kept apart here.
How the values were obtained:
[1] = Hypotensive activity in anesthetized rats (mean arterious pressure, i.v. bolus); format: in vivo, male albino rats (D strain, Charles River); details: for Potency ratio, In vivo: Table III; for ED20: iv, read-out: ED20, dose reducing by 20% the mean arterious pressure (graphically calculated)
Description: Male albino rats were used (D strain, Charles River) anesthetized with a starting dose of sodium pentobarbital of 60 mg/kg i.p. and thermoregulated at 37° C. Mean arterious pressure was monitored at right carotidis arteria, while the compounds were administered as a bolus into the jugular vein, at constant volumes of 0.3 and 1 ml/kg.
The results, expressed as ED20, dose causing a 20% reduction in the mean arterious pressure (graphically calculated) are expressed in table III, relating to compounds substituted at the 2- and 5-positions.

[2] = Arterious pressure in the anesthetized rabbit, in vein administration; format: in vivo
Excerpt: The above results are confirmed also in another animal species.

[3] = tested on: helicoidal strips of rabbit aorta; assay: In vitro vasodilating activity: inhibition of K+-induced contraction of aorta strips; format: cell-based, male albino rabbits (New Zealand strain); details: for IC50: Oryctolagus cuniculus, read-out: ED50 (concentration causing a 50% inhibition of contraction); for Potency ratio, In vitro: Table III; for times more active than the starting mononitrate: in vitro, II vs IS-5N, X vs IS-2N
Description: Aorta strips from male albino rabbits (New Zealand strain), prepared according to the method by Furchgott and Bhadrakom--J. Pharm. Exp. Ther. 108, 129 (1953), were contracted with a solution enriched in K^+ (100 mM). When the contraction was stable, the test compounds were added, according to the method of cumulative dosages.
The responses were isometrically recorded and expressed as contraction percentage inhibition. The concentration causing 50% inhibition (ED50) was calculated on the basis of the equation of the linear tract of the dose-response curves. The obtained results expressed as ED50 values are reported in tables I and II (which respectively relate to the compounds substituted at the 2-and and 5-positions), together with the values of the octanol/water partition coefficient. The potency ratio for each compound, in comparison with the starting mononitrate, IS-2-N and IS-5-N, is reported in the same tables.

[4] = octanol/water partition coefficient; format: physicochemical; details: for logP: octanol/water, read-out: Partition coeff. (octanol/H2O) (converted)
[5] = Table I, 2-acyl derivatives of isosorbide 5-nitrate, K+ 100 mM
[6] = Table I, in comparison with isosorbide 5-nitrate
[7] = Table I, 2-acyl derivatives of isosorbide 5-nitrate
[8] = Table II, in comparison with isosorbide 2-nitrate
[9] = Table II, 5-acyl derivatives of isosorbide 2-nitrate
[10] = Table II, 5-acyl derivatives of isosorbide 2-nitrate, K+ 100 mM

Structure (SMILES) | Potency ratio, In vivo ([1]; relative to IS-5-N) | ED20 ([1]; anesthetized rat) [µmol/kg] | Potency ratios (confidence limits) [3, 6] | Potency ratio, In vitro ([3]; relative to IS-5-N) | logP [4, 7] | Potency ratio, In vivo ([1]; relative to IS-2-N) | Potency ratios (confidence limits) [3, 8] | Potency ratio, In vitro ([3]; relative to IS-2-N) | logP [4, 9] | further results
COc1cc(C(=O)O[C@H]2CO[C@H]3[C@@H]2OC[C@H]3O[N+](=O)[O-])cc(OC)c1OC [II, 1,4:3,6-dianhydrosorbitol 2-(3,4,5-trimethoxy)-benzoate 5-nitrate] | ≈ 79 | 1.9 | 113.48 (72.30-172.85) | 113 | 2.09 |  |  |  |  | hypotensive activity in words ([1]; rat): remarkable hypotensive activity in both "in vitro" and "in vivo" tests; reduction in arterious pressure [2]: dose-depending reduction in arterious pressure; strength of arterious pressure reduction higher than that of IS-2N ([2]; vs IS-2N): about 10 times; strength of arterious pressure reduction higher than that of IS-5N ([2]; vs IS-5N): ~100 times; IC50 [3, 5]: 2.72 µM; times more active than the starting mononitrate [3]: about 110 times; times more lipophilic than the starting mononitrate [4]: about 140 times
CCCCCCCCCCCCCCCC(=O)O[C@H]1CO[C@H]2[C@@H]1OC[C@H]2O[N+](=O)[O-] [III, 1,4:3,6-dianhydrosorbitol 5-nitrate 2-palmitate] |  |  |  |  | 1.35 |  |  |  |  | IC50 [3, 5]: > 10 µM
O=[N+]([O-])O[C@H]1CO[C@H]2[C@@H]1OC[C@H]2O [IS-2-N, 1,4:3,6-dianhydrosorbitol 2-nitrate, reference compound] |  |  |  |  |  | ≈ 1 | 1.0 | 1 | -0.231 | ED20 ([1]; Rattus norvegicus): 12 µmol/kg; IC50 [3]: 23.9 µM
CC(=O)O[C@H]1CO[C@H]2[C@@H]1OC[C@H]2O[N+](=O)[O-] [IS-2A-5N, isosorbide 2-acetate 5-nitrate, reference compound] | ≈ 60 | 2.5 | 8.21 (5.11-13.13) | 8 | 0.579 |  |  |  |  | IC50 [3, 5]: 33.9 µM
CCC(=O)O[C@H]1CO[C@H]2[C@@H]1OC[C@H]2O[N+](=O)[O-] [IS-2P-5N, isosorbide 5-nitrate 2-propionate, reference compound] | ≈ 65 | 2.3 | 5.19 (3.53-7.52) | 5 | 1.15 |  |  |  |  | IC50 [3, 5]: 56.8 µM
O=[N+]([O-])O[C@@H]1CO[C@H]2[C@@H]1OC[C@@H]2O [IS-5-N, 1,4:3,6-dianhydrosorbitol 5-nitrate, reference compound] | 1 |  | 1.0 | 1 | -0.0501 |  |  |  |  | ED20 ([1]; Rattus norvegicus): 150 µmol/kg; IC50 [3]: 253 µM
CC(=O)O[C@@H]1CO[C@H]2[C@@H]1OC[C@@H]2O[N+](=O)[O-] [IS-5A-2N, isosorbide 5-acetate 2-nitrate, reference compound] |  | 2.2 |  |  |  | ≈ 5.4 | 6.55 (4.60-9.17) | 6.5 | 0.418 | IC50 [3, 10]: 3.97 µM
CCC(=O)O[C@@H]1CO[C@H]2[C@@H]1OC[C@@H]2O[N+](=O)[O-] [IS-5P-2N, isosorbide 2-nitrate 5-propionate, reference compound] |  |  |  |  |  |  | 15.59 (10.74-22.44) | 15.6 | 0.947 | IC50 [3, 10]: 1.54 µM
COc1ccc(C=CC(=O)O[C@H]2CO[C@H]3[C@@H]2OC[C@H]3O[N+](=O)[O-])cc1OC [IV, 1,4:3,6-dianhydrosorbitol 2-(3,4-dimethoxy)cinnamate 5-nitrate] | ≈ 83 | 1.8 | ~3 | 3 | 2.96 |  |  |  |  | 
COc1cc(C=CC(=O)O[C@@H]2CO[C@H]3[C@@H]2OC[C@@H]3O[N+](=O)[O-])cc(OC)c1OC [IX, 1,4:3,6-dianhydrosorbitol 5-(3,4,5-trimethoxy)cinnamate 2-nitrate] |  | 0.6 |  |  |  | ≈ 20 | ~3 | 6 | 2.5 | 
O=C(C=Cc1ccccc1)O[C@H]1CO[C@H]2[C@@H]1OC[C@H]2O[N+](=O)[O-] [V, 1,4:3,6-dianhydrosorbitol 2-cinnamate 5-nitrate] | ≈ 79 | 1.9 | ~1 | 1 |  |  |  |  |  | Partition coeff. (octanol/H2O) [4]: very high
COc1cc(C=CC(=O)O[C@H]2CO[C@H]3[C@@H]2OC[C@H]3O[N+](=O)[O-])cc(OC)c1OC [VI, 1,4:3,6-dianhydrosorbitol 2-(3,4,5-trimethoxy)cinnamate 5-nitrate] | ≈ 94 | 1.6 | 7.08 (4.21-11.67) | 7 | 2.44 |  |  |  |  | 
COc1ccc(C=CC(=O)O[C@@H]2CO[C@H]3[C@@H]2OC[C@@H]3O[N+](=O)[O-])cc1OC [VII, 1,4:3,6-dianhydrosorbitol 5-(3,4-dimethoxy)cinnamate 2-nitrate] |  | 0.3 |  |  |  | ≈ 40 | ~1 | 1 | 2.2 | 
CCCCCCCCCCCCCCCC(=O)O[C@@H]1CO[C@H]2[C@@H]1OC[C@@H]2O[N+](=O)[O-] [VIII, 1,4:3,6-dianhydrosorbitol 2-nitrate 5-palmitate] |  |  |  |  |  |  |  |  | 1.51 | 
COc1cc(C(=O)O[C@@H]2CO[C@H]3[C@@H]2OC[C@@H]3O[N+](=O)[O-])cc(OC)c1OC [X, 1,4:3,6-dianhydrosorbitol 5-(3,4,5-trimethoxy)-benzoate 2-nitrate] |  | 0.4 |  |  |  | ≈ 30 | 1.58 (1.13-2.19) | 1 | 2.08 | IC50 [3, 10]: 13.8 µM; times more active than the starting mononitrate [3]: 1.58 times; times more lipophilic than the starting mononitrate [4]: 200 times
CCOC(=O)CCCCC(=O)O[C@H]1CO[C@H]2[C@@H]1OC[C@H]2O[N+](=O)[O-] [XI, 1,4:3,6-dianhydrosorbitol 5-nitrate 2-(5-ethoxycarbonyl)pentanoate] | ≈ 21 | 7 | 6.91 (4.78-9.88) | 7 | 1.48 |  |  |  |  | IC50 [3, 5]: 46.4 µM
O=C(CCC(=O)O[C@H]1CO[C@H]2[C@@H]1OC[C@H]2O[N+](=O)[O-])O[C@H]1CO[C@H]2[C@@H]1OC[C@H]2O[N+](=O)[O-] [XII, bis-(1,4:3,6-dianhydrosorbitol 5-nitrate-2-il)succinate] | ≈ 21 |  | ~20 | 7 | 1.81 |  |  |  |  | ED20 ([1]; Rattus norvegicus): 7 µmol/kg
CCOC(=O)CCCCC(=O)O[C@@H]1CO[C@H]2[C@@H]1OC[C@@H]2O[N+](=O)[O-] [XIII, 1,4:3,6-dianhydrosorbitol 2-nitrate 5-(5-ethoxycarbonyl)-pentanoate] |  | 2.5 |  |  |  | ≈ 4.8 | 6.65 (4.81-9.10) | 6.6 | 1.58 | 
O=C(O)CCC(=O)O[C@H]1CO[C@H]2[C@@H]1OC[C@H]2O[N+](=O)[O-] [XIV, 1,4:3,6-dianhydrosorbitol 5-nitrate 2-(3-carboxy)propionate] | ≈ 0.5 |  | 0.16 (0.10-0.25) | 0.2 | 0.294 |  |  |  |  | ED20 ([1]; Rattus norvegicus): 300 µmol/kg; IC50 [3]: 2100 µM

Reference: patent US4956384A, “1,4:3,6-dianhydrosorbitol 2-mononitrate and 5-mononitrate esters and pharmaceutical compositions therefrom” (Chiesi Farmaceutici S.p.A., priority 1987, dated 1990)
